Data taken from the NIST ThermoML archive (doi:10.1016/j.tca.2016.05.013).
Numbers after ± are expanded uncertainties.

Key:
[1] = refractive index (Na D-line) (dimensionless); mn = molality of the nth substance listed, in mol/kg; conditions: 86.8 kPa, Liquid, Standard Abbe refractometry, m2 = 0
[2] = 86.8 kPa, Liquid; for speed of sound: Frequency=3 MHz, Sing-around technique in a fixed-path interferometer; for mass density: Vibrating tube method
[3] = refractive index (Na D-line) (dimensionless); conditions: 86.8 kPa, Liquid, Standard Abbe refractometry

SMILES	refractive index ([1]; 288.15 K)	refractive index ([1]; 298.15 K)	refractive index ([1]; 308.15 K)	refractive index ([1]; 318.15 K)	speed of sound ([2]; 288.15 K)	mass density ([2]; 288.15 K)	speed of sound ([2]; 298.15 K)	mass density ([2]; 298.15 K)	speed of sound ([2]; 308.15 K)	mass density ([2]; 308.15 K)	speed of sound ([2]; 318.15 K)	mass density ([2]; 318.15 K)	refractive index ([3]; 288.15 K)	refractive index ([3]; 298.15 K)	refractive index ([3]; 308.15 K)	refractive index ([3]; 318.15 K)
O [water] + CCCCn1cc[n+](C)c1.O=C([O-])c1ccccc1O	1.3329 ± 0.004	1.3323 ± 0.004	1.3316 ± 0.004	1.3305 ± 0.004	–	–	–	–	–	–	–	–	–	–	–	–
CCCCn1cc[n+](C)c1.O=C([O-])c1ccccc1O [1-butyl-3-methylimidazolium salicylate]	–	–	–	–	1721.6 ± 2.4 m/s	1155.72 ± 1.6 kg/m3	1679.2 ± 2.4 m/s	1148.81 ± 1.6 kg/m3	1640.9 ± 2.4 m/s	1142.02 ± 1.6 kg/m3	1606.1 ± 2.4 m/s	1135.41 ± 1.6 kg/m3	1.6503 ± 0.004	1.647 ± 0.004	1.6442 ± 0.004	1.6413 ± 0.004
